Results as given in patent US12239711B2, “Cereblon ligands and bifunctional compounds comprising the same” (Arvinas Operations, Inc., priority 2014, dated 2025).

test system: androgen receptor (AR); test: AR ELISA assay in LNCaP and/or VCaP cells; format: cell-based; settings: 5 hours
Method: 4. AR ELISA Assay Protocol for Table 6
Compounds were evaluated in this assay in LNCaP and/or VCaP cells utilizing similar protocols. The protocols used with VCaP cells are described below. The androgen receptor ELISA assay was performed using PathScani AR Sandwich ELISA (Cell Signaling Catalog #12850) according to the following assay steps:
VCaP cells were seeded at 40,000 cells/well at a volume of 100 μL/well in VCaP assay medium [Phenol red free RPMI (Gibco Cat #11835-030); 5% Charcoal Stripped (Dextran treated) FBS (Omega Scientific, Cat #FB-04); 1% penstrep (Life Technologies, Gibco Cat #: 10378-016)] in Corning 3904 plates. The cells were incubated for a minimum of 3 days. Cells were dosed with PROTACs diluted in 0.01% DMSO and the drug treatment was allowed for 5 hours.
AR ELISA (Cell Signaling) was performed as follows: 1× Cell Signaling Cell lysis buffer was made (Catalogue #9803; comes with the kit). Media from the treated wells is aspirated, and 100 μL 1× cell lysis buffer/well is added. The cells were placed on a shaker for 10 minutes at 4° C. Twenty microliters of lysate was transferred to 100 μl of Diluent in ELISA plate (0.15 μg/ml-0.075 μg/ml). The lysate-diluent mixture was shaken for 30 minutes at 37° C. Allow mouse AR antibody, anti-mouse antibody, TMB, and STOP solution to come to room temperature. The 1× ELISA buffer included in kit was made and loaded in the reservoir. Media from the plates was discarded, the ELISA plate tapped hard on paper towel, and washed 4×200 μl ELISA wash buffer using a plate washer.
One-hundred (100) μL/well of mouse AR detection Ab was added; the plates were covered and shaken at 37° C. for 1 hour; media was discarded from the plates, the plates were tapped on a paper towel, washed 4× with 200 μL ELISA wash buffer with a plate washer.
One-hundred (100) μL/well of anti-mouse—HRP conjugated Ab (comes with the kit) was added; the plates were covered and shaken at 37° C. for 30 minutes; the TMB reagent was allowed to come to room temperature; the media was discard from the plate, the plates were tapped on paper towl, washed 4× with 200 μL of ELISA wash buffer; the plates were tapped the plates on paper towl. One-hundred (100) μL of TMB was added and the plates shaken for 2 minutes—while watching for color development. One-hundred (100) μL Stop solution was added when light blue color developed. Plates were shaken and read at 450 nm.
Progression of prostate cancer in patients treated with anti-androgen therapy usually involves one of several mechanisms of enhanced Androgen Receptor (AR) signaling, including increased intratumoral androgen synthesis, increased AR expression and AR mutations. PROTACs (PROteolysis TArgeting Chimera), which use bi-functional molecules that simultaneously bind a target of choice and an E3 ligase, cause ubiquitination via induced proximity and degradation of the targeted, pathological protein. As opposed to traditional target inhibition, which is a competitive process, degradation is a progressive process. As such, it is less susceptible to increases in endogenous ligand, target expression, or mutations in the target. Thus, this technology appears to be ideal for addressing the mechanisms of AR resistance in patients with prostate cancer. Data was analyzed and plotted using GraphPad Prism software.

Row | SMILES | DC50 [nM] | AR Dmax
1 | COc1cc(N2CCN(CC3CCN(c4ccc(C(=O)N[C@H]5CC[C@H](Oc6ccc(C#N)c(Cl)c6)CC5)nn4)CC3)CC2)cc2c1C(=O)N(C1CCC(=O)NC1=O)C2=O (mixture of isomers) [compound 32, rac-N-((1r,4r)-4-(3-chloro-4-cyanophenoxy)cyclohexyl)-6-(4-((4-(2-(2,6-dioxopiperidin-3-yl)-7-methoxy-1,3-dioxoisoindolin-5-yl)piperazin-1-yl)methyl)piperidin-1-yl)pyridazine-3-carboxamide] | < 1 | –
2 | COc1cc(N2CCN(CC3CCN(c4ncc(C(=O)N[C@H]5C(C)(C)[C@H](Oc6ccc(C#N)c(Cl)c6)C5(C)C)cn4)CC3)CC2)cc2c1C(=O)N(C1CCC(=O)NC1=O)C2=O (mixture of isomers) [compound 33, rac-N-((1r,3r)-3-(3-chloro-4-cyanophenoxy)-2,2,4,4-tetramethylcyclobutyl)-2-(4-((4-(2-(2,6-dioxopiperidin-3-yl)-7-methoxy-1,3-dioxoisoindolin-5-yl)piperazin-1-yl)methyl)piperidin-1-yl)pyrimidine-5-carboxamide] | < 1 | –
3 | CC1(C)[C@H](NC(=O)c2ccc(N3CCC(CN4CCN(c5ccc6c(c5)C5(CC5)N(C5CCC(=O)NC5=O)C6=O)CC4)CC3)cc2)C(C)(C)[C@H]1Oc1ccc(C#N)c(Cl)c1 (mixture of isomers) [compound 34, rac-N-((1r,3r)-3-(3-chloro-4-cyanophenoxy)-2,2,4,4-tetramethylcyclobutyl)-4-(4-((4-(2′-(2,6-dioxopiperidin-3-yl)-3′-oxospiro[cyclopropane-1,1′-isoindolin]-6′-yl)piperazin-1-yl)methyl)piperidin-1-yl)benzamide] | – | C (C < 50)
4 | CC(C)N(CC1CCN(c2cnc(C(=O)N[C@H]3CC[C@H](Oc4ccc(C#N)c(Cl)c4)CC3)cn2)CC1)[C@H]1C[C@H](Oc2ccc3c(c2)C(=O)N(C2CCC(=O)NC2=O)C32CC2)C1 (mixture of isomers) [compound 35, rac-N-((1r,4r)-4-(3-chloro-4-cyanophenoxy)cyclohexyl)-5-(4-((((1r,3r)-3-((2′-(2,6-dioxopiperidin-3-yl)-3′-oxospiro[cyclopropane-1,1′-isoindolin]-5′-yl)oxy)cyclobutyl)(isopropyl)amino)methyl)piperidin-1-yl)pyrazine-2-carboxamide] | – | C (C < 50)
5 | CC(C)N(CC1CCN(c2cnc(C(=O)N[C@H]3CC[C@H](Oc4ccc(C#N)c(Cl)c4)CC3)cn2)CC1)[C@H]1C[C@H](Oc2ccc3c(c2)C2(CC2)N(C2CCC(=O)NC2=O)C3=O)C1 (mixture of isomers) [compound 36, rac-N-((1r,4r)-4-(3-chloro-4-cyanophenoxy)cyclohexyl)-5-(4-((((1r,3r)-3-((2′-(2,6-dioxopiperidin-3-yl)-3′-oxospiro[cyclopropane-1,1′-isoindolin]-6′-yl)oxy)cyclobutyl)(isopropyl)amino)methyl)piperidin-1-yl)pyrazine-2-carboxamide] | – | C (C < 50)
6 | CC(C)N(CC1CCN(c2cnc(C(=O)N[C@H]3C(C)(C)[C@H](Oc4ccc(C#N)c(Cl)c4)C3(C)C)cn2)CC1)[C@H]1C[C@H](Oc2ccc3c(c2)C(=O)N(C2CCC(=O)NC2=O)C32CC2)C1 (mixture of isomers) [compound 37, rac-N-((1r,3r)-3-(3-chloro-4-cyanophenoxy)-2,2,4,4-tetramethylcyclobutyl)-5-(4-((((1r,3r)-3-((2′-(2,6-dioxopiperidin-3-yl)-3′-oxospiro[cyclopropane-1,1′-isoindolin]-5′-yl)oxy)cyclobutyl)(isopropyl)amino)methyl)piperidin-1-yl)pyrazine-2-carboxamide] | – | C (C < 50)
7 | CC(C)N(CC1CCN(c2cnc(C(=O)N[C@H]3C(C)(C)[C@H](Oc4ccc(C#N)c(Cl)c4)C3(C)C)cn2)CC1)[C@H]1C[C@H](Oc2ccc3c(c2)C2(CC2)N(C2CCC(=O)NC2=O)C3=O)C1 (mixture of isomers) [compound 38, rac-N-((1r,3r)-3-(3-chloro-4-cyanophenoxy)-2,2,4,4-tetramethylcyclobutyl)-5-(4-((((1r,3r)-3-((2′-(2,6-dioxopiperidin-3-yl)-3′-oxospiro[cyclopropane-1,1′-isoindolin]-6′-yl)oxy)cyclobutyl)(isopropyl)amino)methyl)piperidin-1-yl)pyrazine-2-carboxamide] | – | C (C < 50)
8 | CC1(C)[C@H](NC(=O)c2ccc(N3CCN(CCCCCOc4ccc5c(c4)CCN(C4CCC(=O)NC4=O)C5=O)CC3)nc2)C(C)(C)[C@H]1Oc1ccc(C#N)c(Cl)c1 (mixture of isomers) [compound 46, N-((1r,3r)-3-(3-chloro-4-cyanophenoxy)-2,2,4,4-tetramethylcyclobutyl)-6-(4-(5-(2-(2,6-dioxopiperidin-3-yl)-1-oxo-1,2,3,4-tetrahydroisoquinolin-6-yloxy)pentyl)piperazin-1-yl)nicotinamide] | < 1 | A (A >= 75)
9 | CC1(C)[C@H](NC(=O)c2ccc(N3CCN(CCCCCOc4ccc5c(c4)CC(=O)N(C4CCC(=O)NC4=O)C5=O)CC3)nc2)C(C)(C)[C@H]1Oc1ccc(C#N)c(Cl)c1 (mixture of isomers) [compound 47, N-((1r,3r)-3-(3-chloro-4-cyanophenoxy)-2,2,4,4-tetramethylcyclobutyl)-6-(4-(5-((2-(2,6-dioxopiperidin-3-yl)-1,3-dioxo-1,2,3,4-tetrahydroisoquinolin-6-yl)oxy)pentyl)piperazin-1-yl)nicotinamide] | 1 to 10 | B (50 <= B < 75)
10 | CC1(C)[C@H](NC(=O)c2ccc(N3CCN(CCCCCOc4ccn5c(=O)n(C6CCC(=O)NC6=O)nc5c4)CC3)nc2)C(C)(C)[C@H]1Oc1ccc(C#N)c(Cl)c1 (mixture of isomers) [compound 48, N-((1r,3r)-3-(3-chloro-4-cyanophenoxy)-2,2,4,4-tetramethylcyclobutyl)-6-(4-(5-((2-(2,6-dioxopiperidin-3-yl)-3-oxo-2,3-dihydro-[1,2,4]triazolo[4,3-a]pyridin-7-yl)oxy)pentyl)piperazin-1-yl)nicotinamide] | < 1 | B (50 <= B < 75)
11 | CC1(C)[C@H](NC(=O)c2ccc(N3CCN(CCCCCOc4ccc5nn(C6CCC(=O)NC6=O)c(=O)n5c4)CC3)nc2)C(C)(C)[C@H]1Oc1ccc(C#N)c(Cl)c1 (mixture of isomers) [compound 49, N-((1r,3r)-3-(3-chloro-4-cyanophenoxy)-2,2,4,4-tetramethylcyclobutyl)-6-(4-(5-((2-(2,6-dioxopiperidin-3-yl)-3-oxo-2,3-dihydro-[1,2,4]triazolo[4,3-a]pyridin-6-yl)oxy)pentyl)piperazin-1-yl)nicotinamide] | < 1 | A (A >= 75)
12 | CC1(C)[C@H](NC(=O)c2ccc(N3CCC(CN4CCN(c5ccn6c(=O)n(C7CCC(=O)NC7=O)nc6c5)CC4)CC3)cc2)C(C)(C)[C@H]1Oc1ccc(C#N)c(Cl)c1 (mixture of isomers) [compound 50, N-((1r,3r)-3-(3-chloro-4-cyanophenoxy)-2,2,4,4-tetramethylcyclobutyl)-4-(4-((4-(2-(2,6-dioxopiperidin-3-yl)-3-oxo-2,3-dihydro-[1,2,4]triazolo[4,3-a]pyridin-7-yl)piperazin-1-yl)methyl)piperidin-1-yl)benzamide] | < 1 | A (A >= 75)
13 | CC1(C)[C@H](NC(=O)c2ccc(N3CCC(CCN4CCN(c5cc6c(cn5)C(=O)N(C5CCC(=O)NC5=O)C6=O)CC4)CC3)cc2)C(C)(C)[C@H]1Oc1ccc(C#N)c(Cl)c1 (mixture of isomers) [compound 51, rac-N-((1r,3r)-3-(3-chloro-4-cyanophenoxy)-2,2,4,4-tetramethylcyclobutyl)-4-(4-(2-(4-(2-(2,6-dioxopiperidin-3-yl)-1,3-dioxo-2,3-dihydro-1H-pyrrolo[3,4-c]pyridin-6-yl)piperazin-1-yl)ethyl)piperidin-1-yl)benzamide] | < 1 | A (A >= 75)
